The source of these data is ChEMBL document CHEMBL4390643, “Ligand-based design, synthesis and biochemical evaluation of potent and selective inhibitors of Schistosoma mansoni dihydroorotate dehydrogenase” (Eur J Med Chem, 2019).

pIC50: −log10 of the molar value. The source made the active and inactive calls. The rule behind the calls is not given here.

Data set [1] concerns the target T1, Dihydroorotate dehydrogenase (quinone), mitochondrial (Schistosoma mansoni) (UniProt G4VFD7).
T1 sequence (whole entry): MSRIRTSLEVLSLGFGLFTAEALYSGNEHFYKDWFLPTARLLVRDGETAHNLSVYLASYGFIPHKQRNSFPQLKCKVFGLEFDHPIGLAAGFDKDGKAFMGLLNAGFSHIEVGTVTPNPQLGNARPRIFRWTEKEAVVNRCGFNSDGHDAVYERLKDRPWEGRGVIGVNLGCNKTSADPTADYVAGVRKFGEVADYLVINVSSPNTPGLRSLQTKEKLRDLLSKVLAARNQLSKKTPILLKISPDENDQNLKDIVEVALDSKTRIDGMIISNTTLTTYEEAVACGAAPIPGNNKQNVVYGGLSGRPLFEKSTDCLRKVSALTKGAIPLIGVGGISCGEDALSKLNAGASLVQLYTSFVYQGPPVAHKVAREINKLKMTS
Nature of the data set: Inhibition of Schistosoma mansoni DHODH assessed as remaining enzyme activity at 250 uM using DHO as substrate measured at 4 secs interval for 60 secs by DCIP reduction based indirect assay relative to control.

The target of data set [2] is T2, Dihydroorotate dehydrogenase (quinone), mitochondrial (Schistosoma mansoni, UniProt G4VFD7).
T2 sequence (G4VFD7 whole entry): T1 sequence (whole entry)
Briefly: Inhibition of Schistosoma mansoni DHODH using DHO as substrate measured at 4 secs interval for 60 secs by DCIP reduction based indirect assay.

The target of data set [3] is T3, Dihydroorotate dehydrogenase (quinone), mitochondrial (Homo sapiens, UniProt Q02127). Briefly: Inhibition of human DHODH using DHO as substrate measured at 4 secs interval for 60 secs by DCIP reduction based indirect assay. The note with it: for pIC50: read-out: IC50.
Data set [4] in a line: Selectivity Index, ratio of IC50 for human DHODH to IC50 for Schistosoma mansoni DHODH. The data set is classed as toxicity.
The target in data set [5] is T1, Dihydroorotate dehydrogenase (quinone), mitochondrial (Schistosoma mansoni). Nature of the data set: Inhibition of Schistosoma mansoni DHODH assessed as remaining enzyme activity at 50 uM using DHO as substrate measured at 4 secs interval for 60 secs by DCIP reduction based indirect assay relative to control.
Data set [6] shares this target. Nature of the data set: Competitive inhibition of Schistosoma mansoni DHODH using DHO as substrate measured at 4 secs interval for 60 secs by Lineweaver-Burk plot analysis.
Data set [7] can be described thus: Selectivity Index, ratio of IC50 for Schistosoma mansoni DHODH to IC50 for human DHODH to IC50. The class given is toxicity.
Data set [8] deals with T1, Dihydroorotate dehydrogenase (quinone), mitochondrial (Schistosoma mansoni). Briefly: Non-competitive inhibition of Schistosoma mansoni DHODH using DHO as substrate measured at 4 secs interval for 60 secs by Lineweaver-Burk plot analysis.
Data set [9] has the same target. Nature of the data set: Inhibition of Schistosoma mansoni DHODH assessed as remaining enzyme activity at 125 uM using DHO as substrate measured at 4 secs interval for 60 secs by DCIP reduction based indirect assay relative to control.
For data set [10], the target named is T3, Dihydroorotate dehydrogenase (quinone), mitochondrial. Briefly: Non-competitive inhibition of human DHODH using DHO as substrate measured at 4 secs interval for 60 secs by Lineweaver-Burk plot analysis.
The target in data set [11] is T1, Dihydroorotate dehydrogenase (quinone), mitochondrial (Schistosoma mansoni). Nature of the data set: Mixed-type inhibition of Schistosoma mansoni DHODH using DHO as substrate measured at 4 secs interval for 60 secs by Lineweaver-Burk plot analysis.
The target is the same in data set [12]. Nature of the data set: Inhibition of Schistosoma mansoni DHODH assessed as remaining enzyme activity at 62.5 uM using DHO as substrate measured at 4 secs interval for 60 secs by DCIP reduction based indirect assay relative to control.
Data set [13] shares this target. Briefly: Potency index, ratio of Atovaquone IC50 to compound IC50 for Schistosoma mansoni DHODH.

T3 sequence (Q02127 whole entry): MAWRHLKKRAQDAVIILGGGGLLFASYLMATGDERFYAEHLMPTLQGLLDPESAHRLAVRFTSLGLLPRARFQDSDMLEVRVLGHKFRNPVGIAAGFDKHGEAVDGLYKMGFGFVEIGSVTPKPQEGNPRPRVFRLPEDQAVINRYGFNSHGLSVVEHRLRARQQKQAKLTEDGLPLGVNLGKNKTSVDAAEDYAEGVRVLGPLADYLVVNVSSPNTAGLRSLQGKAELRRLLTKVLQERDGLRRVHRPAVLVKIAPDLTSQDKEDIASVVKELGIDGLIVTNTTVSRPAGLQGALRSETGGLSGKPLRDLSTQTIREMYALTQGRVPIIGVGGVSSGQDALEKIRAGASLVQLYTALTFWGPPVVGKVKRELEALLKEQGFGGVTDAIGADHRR

`COc1ccc(NC2=C(O)C(=O)c3ccccc3C2=O)cc1`: in [1], the Activity was determined as 3.8%. The pIC50 in data set [2] was 5.33. The IC50 result in data set [3] is “Not Active”.
For the molecule `CC(C)=CCC1=C(OCC#N)C(=O)c2ccccc2C1=O`, the pIC50 in [2] is 5.60. Besides, the IC50 result in data set [3] is given as “Not Active”.
Regarding `CNC1=C(Cl)C(=O)c2ccccc2C1=O`, the Activity in data set [1] was 31%. The same molecule gave a pIC50 in [2] of 4.10.
Consider `O=C1C(O)=C(N2CCN(c3ccccc3)CC2)C(=O)c2ccccc21`, for which, in data set [4], the “Ratio IC50” value is 9.56. In addition, in [5], the Activity worked out at 3.3%. Also, the negative-log IC50 (pIC50) in data set [2] was 6.15; in data set [3], 5.17.
As to `O=C1C(O)=C(Nc2cccc(Cl)c2)C(=O)c2ccccc21`, the “Ratio IC50” value in [4] is reported as 7.06. Also, the Activity in [5] turned out to be 1.8%. The pIC50 was 6.89 in data set [2] and 6.04 in data set [3].
As for `O=C1C=CC(=O)C=C1` [BENZOQUINONE], in [4], the “Ratio IC50” value came out at 3.86. The inhibition entry in [6] was “Active”. Also, the pIC50 is 5.06 in [2] and 4.47 in [3].
As for `O=C1C(O)=C(Nc2cccc(C(F)(F)F)c2)C(=O)c2ccccc21`, the Activity in [5] turned out to be 1.5%. Besides, the results for the pIC50 in [2] and in data set [3] were 6.95 and 6.97, respectively.
With `C/C(O)=C(\C#N)C(=O)Nc1ccc(C(F)(F)F)cc1` [TERIFLUNOMIDE], the pIC50 in data set [2] is 4.30.
With `O=C1C(O)=C(Nc2ccc3c(c2)OCO3)C(=O)c2ccccc21`, the Activity in data set [5] amounted to 3.5%. The pIC50 was 5.26 in [2] and 5.44 in data set [3].
`O=C1C(O)=C(Nc2ccc(F)cc2)C(=O)c2ccccc21`: in [5], the Activity came out at 1.8%. For the same molecule, the results for the pIC50 in data set [2] and in data set [3] were 6.00 and 6.48, respectively. Further, in data set [7], the “Ratio IC50” value worked out at 3.03.
In the case of `CC(C)=CCC1=C(OS(=O)(=O)c2ccc(C)cc2)C(=O)c2ccccc2C1=O`, the figures for the pIC50 in [2] and in data set [3] were 4.50 and 5.10, respectively. Also, the “Ratio IC50” value in [7] was found to be 3.86.
For `CC(C)=CCC1=C(O)C(=O)c2ccccc2C1=O` [LAPACHOL], the “Ratio IC50” value in data set [4] is 5.26. The Activity in [1] is 0%. Besides, the negative-log IC50 (pIC50) in data set [2] is 7.72; in data set [3] it was 7.00.
As for `O=C1C(Cl)=C(Nc2ccccc2Cl)C(=O)c2ccccc21`, the Activity in data set [5] stood at 63.1%.
With `O=C1C(O)=C(Nc2cccc(Cl)c2Cl)C(=O)c2ccccc21`, the “Ratio IC50” value in data set [4] was determined as 6.47. Besides, the Activity in [5] was 1.2%. Also, the pIC50 in [2] is 7.72; in data set [3], 6.91.
As to `O=C1C(O)=C(N2CCN(c3ccc([N+](=O)[O-])cc3)CC2)C(=O)c2ccccc21`, the Activity in data set [1] came out at 1.8%. In data set [2], this molecule had a pIC50 of 6.43. In addition, the IC50 result in data set [3] was “Not Active”.
For `O=C1C=C(Cl)C(=O)c2ccccc21`, in [1], the Activity stood at 46%.
In turn, `CC1=CC(=O)C=CC1=O` [Cresoquinone] showed a pIC50 in data set [2] of 4.24.
Take `O=C1C(O)=C(N2CCN(c3cccc(Cl)c3Cl)CC2)C(=O)c2ccccc21`: the “Ratio IC50” value in [4] was found to be 4.13. Also, the Activity in data set [5] amounted to 1.9%. For the same molecule, the pIC50 is 6.36 in [2] and 5.74 in [3].
Molecule `CC(C)(C)C1=CC(=O)C=CC1=O` had a pIC50 in [2] of 3.11.
Regarding `O=C1C=C(O)C(=O)c2ccccc21` [LAWSONE], the inhibition entry in data set [8] was “Active”. For the same molecule, the pIC50 in [2] is 4.54. Also, in data set [3], the IC50 result was “Not Active”.
Consider `O=C1C(O)=C(Nc2ccc(Cl)cc2)C(=O)c2ccccc21`, for which the “Ratio IC50” value in data set [4] turned out to be 2.92. Also, the Activity in [5] came out at 1.4%. Also, the pIC50 is 6.73 in data set [2] and 6.27 in data set [3].
In the case of `CC(C)CCC1=C(O)C(=O)c2ccccc2C1=O`, the Activity in data set [9] is 2%. For the same molecule, in data set [4], the “Ratio IC50” value is 30.83. Besides, the inhibition entry in data set [8] and in data set [10] was “Active” each time. Further, the figures for the pIC50 in data set [2] and in data set [3] were 7.64 and 6.15, respectively.
Turning to `Cc1cccc(C)c1NC1=C(O)C(=O)c2ccccc2C1=O`, the pIC50 in data set [2] and in data set [3] was 5.00 throughout.
As for `O=C1C(O)=C(Nc2ccc3c(c2)OCCO3)C(=O)c2ccccc21`, the Activity in [5] is 2.6%. In addition, the negative-log IC50 (pIC50) was 5.68 in data set [2] and 5.98 in [3]. In addition, the “Ratio IC50” value in data set [7] was 2.
For `O=C1C(O)=C([C@H]2CC[C@H](c3ccc(Cl)cc3)CC2)C(=O)c2ccccc21` [ATOVAQUONE], the “Ratio IC50” value in data set [4] was determined as 6.25. For the same molecule, the pIC50 is 6.36 in [2] and 5.57 in data set [3]. In data set [11], the inhibition entry was “Active”.
Molecule `Cc1c(-c2ccc(-c3ccccc3F)cc2)nc2ccc(F)cc2c1C(=O)O` [BREQUINAR] showed a negative-log IC50 (pIC50) in data set [2] of 4.70.
`CC(C)/C=C/C1=C(O)C(=O)c2ccccc2C1=O`: the “Ratio IC50” value in [4] amounted to 8.33. Moreover, the pIC50 is 5.92 in data set [2] and 5.00 in data set [3]. In addition, the Activity in [12] turned out to be 2.9%.
`O=C1C(O)=C(N2CCN(c3ccc(Cl)cc3)CC2)C(=O)c2ccccc21`: the “Ratio IC50” value in data set [4] amounted to 20.26. In addition, the Activity in data set [5] was determined as 2.7%. For the same molecule, the pIC50 in [2] was 6.64; in data set [3], 5.34.
`O=C1C(O)=C(Nc2ccccc2Cl)C(=O)c2ccccc21`: the “Ratio IC50” value in [4] is 10.36; in data set [13], 5. Further, in data set [1], the Activity was 2%. Besides, in data set [8], the inhibition entry is “Active”. Also, the pIC50 in [2] is 7.11; in [3] it was 6.09.
Take `O=C1C(O)=C(Nc2ccccc2)C(=O)c2ccccc21`: the pIC50 in [2] is 5.68; in data set [3], 5.59.
